Results as given in PMC10746112, “Synthesis and Pro-Apoptotic Effects of Nitrovinylanthracenes and Related Compounds in Chronic Lymphocytic Leukaemia (CLL) and Burkitt’s Lymphoma (BL)” (Molecules, 2023).
Several values for one entry are separate records, joined by “and”; a condition that tells them apart may be missing. Equal entries are not always repeated.

What was measured:
[1] = system: HeLa cervical cancer cells; test: alamarBlue cell viability assay; details: Homo sapiens, 24 h; for viability at 1 µM: read-out: % Viable Cells Remaining HeLa 24 h 1 µM; for viability at 10 µM: read-out: % Viable Cells Remaining HeLa 24 h 10 µM
[2] = system: MCF-7 human breast cancer cells; test: alamarBlue cell viability assay; details: MCF7, 72 h; for viability at 1 µM: read-out: % Viable Cells Remaining MCF-7 72 h 1 µM; for viability at 10 µM: read-out: % Viable Cells Remaining MCF-7 72 h 10 µM
[3] = system: MUTU-I Burkitt’s lymphoma cell line; details: nitrostyrenes, 24 h, cited from earlier work
[4] = system: HL-60 promyelocytic leukaemia cells; test: alamarBlue cell viability assay; details: Homo sapiens, HL-60, 24 h; for viability at 1 µM: read-out: % Viable Cells Remaining HL60 24 h 1 µM; for viability at 10 µM: read-out: % Viable Cells Remaining HL60 24 h 10 µM
[5] = system: DG-75 cells; set-up: method as in earlier work; details: nitrostyrenes and taxol, MTT assay, reported data; cited from earlier work
[6] = system: DG-75 BL cells; test: Annexin V/PI apoptotic assay (FACS); assay type: cell-based; details: 10 µM, 48 h, total (early + late) apoptosis
Experimental: (§1) The chemotherapeutic drug taxol was used as a positive control. The pro-apoptotic effects of the selected nitrostyrene compounds 11g, 11h, 11i, 11j, 11k and 11l (10 μM) were determined using FITC (fluorescein isothiocyanate), Annexin V/PI (propidium iodide) staining and FACS (fluorescence-activated cell sorting) analysis to characterise the mode of cellular death induced by the synthesised compounds. Four populations were produced in this assay: Annexin-V- and PI-negative (Q4, healthy cells), Annexin-V-positive and PI-negative (Q3, early apoptosis), Annexin-V- and PI-positive (Q2, late apoptosis) and Annexin-V-negative and PI-positive (Q1, necrosis), which were easily identified and quantified. Apoptosis was assessed as % total apoptosis by a combination of early and late apoptosis (Q3 and Q2, respectively). […] The identification of compounds that can induce apoptosis in cancer cells is required in the development of potential lead structures for anticancer drugs.
(§2) The BL cells DG-75 and MUTU-I (750,000) were treated at 37 °C with either vehicle (0.1% (v/v) EtOH), […] taxol (10 μM) and incubated for 24 h (MUTU-1) or 48 h (DG-75). The CLL cells PGA1 and HG3 (1 × 10^6 cells/mL) were treated at 37 °C with either vehicle (1% (v/v) DMSO) or the nitrostyrene compounds 19a (10 μM, 5 μM and 1 μM) and 19g, 19i, 19l and 19m (10 μM and 1 μM) for 48 h. The cells were then harvested by centrifugation at 400× g in a temperature-controlled Sorvall centrifuge and rinsed with 0.5 mL of Ca^2+ Annexin-V-binding buffer (0.1 M HEPES, pH 7.4; 0.14 M NaCl; 25 mM CaCl2). The samples were resuspended in 50 µL FITC Annexin V (diluted 1:33 in Ca^2+ Annexin V-binding buffer), incubated on ice for 10 min (protected from light), washed with Annexin-V-binding buffer and re-suspended in 500 µL of propidium iodide (PI) solution (0.5 µg/mL). The samples were analysed within 1 h using a BD Accuri C6 flow cytometer counting 10,000 cells and analysed using the FlowJo software (FlowJo LLC, Ashland, OR, USA) package.

[7] = system: MUTU-I BL cells; test: Annexin V/PI apoptotic assay (FACS); assay type: cell-based; details: 10 µM, 24 h, total (early + late) apoptosis
Experimental: as §1, §2

[8] = system: Bjab BL cell line; test: alamarBlue cell viability assay; assay type: cell-based; details: Homo sapiens, 24 h; for viability at 1 µM: read-out: % Viable Cells Remaining Bjab 24 h 1 µM; for viability at 10 µM: read-out: % Viable Cells Remaining Bjab 24 h 10 µM
Experimental: (§3) Cells were seeded at a density of 2.5 × 10^4 cells/well (MCF-7, MDA-MB-231 cells), 1 × 10^4 cells/well (HL-60 cells), 1–5 × 10^4 cells per well (BL MUTU-I, DG-75 cells) and 2 × 10^5 cells/well [HG-3, PGA-1 (CLL cells)], Ramos, BJAB (BL cells) (200 μL per well), in 96-well plates. Cells were treated with the desired drug concentration for the appropriate time for each cell type, and the samples were incubated as required. alamarBlue (20 μL) was then added to each well and the samples further incubated in the dark at 37 °C for 4 h. Wells containing only reagent and cell culture medium in the absence of cells were used as blank controls. Ethanol was used as a vehicle, and cells were treated with 1% ethanol (v/v) in all experiments. The 96-well plates were analysed on a fluorescence plate reader (SpectraMax Gemini, Molecular Devices) (emission and excitement wavelengths of 590 nm and 544 nm, respectively), and the fluorescence was recorded. The decrease in cell viability was then calculated with reference to the vehicle samples (100% viability). EMEM medium with the addition of alamarBlue was used as a blank. Vehicle-treated cells were considered to be 100% viable, and the viabilities of each compound was calculated accordingly. […] All biochemical assays were performed in triplicate on at least three independent occasions, and the mean values were determined.

[9] = system: Ramos BL cell line; test: alamarBlue cell viability assay; assay type: cell-based; details: Homo sapiens, 24 h; for viability at 1 µM: read-out: % Viable Cells Remaining Ramos 24 h 1 µM; for viability at 10 µM: read-out: % Viable Cells Remaining Ramos 24 h 10 µM
Experimental: as §3

[10] = system: MUTU-1 cells; set-up: method as in earlier work; details: nitrostyrenes and taxol, MTT assay, reported data; cited from earlier work
[11] = system: DG-75 Burkitt’s lymphoma cell line; details: nitrostyrenes, 48 h, cited from earlier work
[12] = system: DG-75 Burkitt’s lymphoma cell line; details: human, 48 h, 10 µM
[13] = system: MUTU-I Burkitt’s lymphoma cell line; test: alamarBlue cell viability assay; details: MUTU-I, 24 h; for viability at 1 µM: read-out: % Viable Cells Remaining MUTU-1, 1 µM, 24 h; for viability at 10 µM: read-out: % Viable Cells Remaining MUTU-1, 10 µM, 24 h
[14] = system: MUTU-I Burkitt’s lymphoma cell line; details: human, 24 h, 10 µM
[15] = system: DG-75 Burkitt’s lymphoma cell line; test: alamarBlue cell viability assay; details: Homo sapiens, DG-75, 48 h; for viability at 1 µM: read-out: % Viable Cells Remaining DG-75, 1 µM, 48 h; for viability at 10 µM: read-out: % Viable Cells Remaining DG-75, 10 µM, 48 h
[16] = system: HG-3 CLL cell line; test: alamarBlue cell viability assay; details: 24 h; for viability at 10 µM: read-out: % Viability HG-3, 10 µM, 24 h
[17] = system: PGA-1 CLL cell line; test: alamarBlue cell viability assay; details: 24 h; for % Viability PGA-1: 10 µM; for viability at 1 µM / viability at 10 µM: CLL cell; for viability at 1 µM: read-out: % Viability PGA-1, 1 µM, 24 h; for viability at 10 µM: read-out: % Viability PGA-1, 10 µM, 24 h

Structure (SMILES) | viability at 1 µM [1] [%] | viability at 10 µM [1] [%] | viability at 1 µM [2] [%] | viability at 10 µM [2] [%] | % Viable Cells Remaining MUTU-1 24 h 1 µM [3] [%] | % Viable Cells Remaining MUTU-1 24 h 10 µM [3] | viability at 1 µM [4] [%] | viability at 10 µM [4] [%] | IC50 [5] [nM] | DG-75 Apoptosis (%) [6] [%] | MUTU-I Apoptosis (%) [7] [%] | viability at 1 µM [8] [%] | viability at 10 µM [8] [%] | IC50 [10] [nM] | % Viable Cells Remaining DG-75 [12] [%] | viability at 1 µM [13] [%] | viability at 10 µM [13] [%] | % Viable Cells Remaining MUTU-1 [14] [%] | viability at 1 µM [15] [%] | viability at 10 µM [15] [%] | further results
C/C(=C\c1ccc(Cl)cc1)[N+](=O)[O-] [Compound 11i] | 93 | 17.7 | 103 | 37.1 | 67.22 | 10.53% | 104 | 6.5 | 2750 | 86.4 | 84.5 | 100 | 50.8 | 1300 |  |  |  |  |  |  | viability at 1 µM [9]: 62.6%; viability at 10 µM [9]: 13.9%; % Viable Cells Remaining DG-75 48 h 1 µM [11]: 88.76%; % Viable Cells Remaining DG-75 48 h 10 µM [11]: 0.72%
c1ccc2c(-c3c[nH]nn3)c3ccccc3cc2c1 [Compound 30a, 4-(anthracen-9-yl)-1H-1,2,3-triazole] |  |  |  |  |  |  |  |  |  |  |  |  |  |  | 94.86 | 94.9 | > 90 | 94.5 | 104 | > 90 | 
CC(=CCc1c2ccccc2cc2ccccc12)[N+](=O)[O-] [Compound 20b, 9-(3-Nitrobut-2-en-1-yl)Anthracene] |  |  |  |  |  |  |  |  |  |  |  |  |  |  | 97.63 | 105 | 15 to 40 | 14.55 | 95.4 | 79 to 97 | 
Cc1[nH]nnc1-c1c2ccccc2cc2ccccc12 [Compound 30b, 4-(Anthracen-9-yl)-5-Methyl-1H-1,2,3-Triazole] |  |  |  |  |  |  |  |  |  |  |  |  |  |  | 100.6 | 108 | > 90 | 107.3 | 96.2 | > 90 | melting point: 231 to 232 °C
C/C(=C\c1ccccc1Cl)[N+](=O)[O-] [Compound 11g] | 87.1 | 34.2 | 81.4 | 41.7 | 44.16 | 14.91% | 73.4 | 16.5 | 2750 | 70.6 | 80.9 | 82.2 | 51.9 | 820 |  |  |  |  |  |  | viability at 1 µM [9]: 53.4%; viability at 10 µM [9]: 7.7%; % Viable Cells Remaining DG-75 48 h 1 µM [11]: 75.86%; % Viable Cells Remaining DG-75 48 h 10 µM [11]: −0.08%
c1ccc2c(C3CNN=N3)c3ccccc3cc2c1 (centres unmarked) [Compound 31, 4-(Anthracen-9-yl)-4,5-Dihydro-1H-1,2,3-Triazole] |  |  |  |  |  |  |  |  |  |  |  |  |  |  | 103.1 | 96 | > 90 | 103.1 | 96 | > 90 | melting point: 266 to 268 °C
CC/C(=C\c1ccccc1Cl)[N+](=O)[O-] [Compound 11j, (E)-1-Chloro-2-(2-nitrobut-1-en-1-yl)benzene] | 95.3 | 21.8 | 98.1 | 20.7 | 64.31 | 10.3% and 10.27% | 99.8 | 9.1 | 2050 | 72.3 | 88.3 | 102 | 68.9 | 2180 |  |  |  |  |  |  | viability at 10 µM ([16]; CLL cell): 5.61%; viability at 1 µM [9]: 66.9%; viability at 10 µM [9]: 4.4%; % Viability PGA-1 [17]: 0.53%; viability at 1 µM [17]: 6.31%; viability at 10 µM [17]: 0.43%; % Viable Cells Remaining DG-75 48 h 1 µM [11]: 79.77%; % Viable Cells Remaining DG-75 48 h 10 µM [11]: 15.89%
CC/C(=C\c1ccc(Cl)cc1)[N+](=O)[O-] [Compound 11l] |  |  |  |  |  | 2.61% |  |  | 3110 | 85.0 | 91.3 |  |  | 1180 |  |  |  |  |  |  | 
O=[N+]([O-])CCc1c2ccccc2cc2ccccc12 [Compound 22, 9-(2-Nitroethyl)Anthracene] |  |  |  |  |  |  |  |  |  |  |  |  |  |  | 99.08 | 105 | > 85 | 100.6 | 86.7 | > 85 | melting point: 147 to 149 °C; viability at 10 µM ([16]; CLL cell): 76%; viability at 10 µM [17]: 75%
CC/C(=C\c1cccc(Cl)c1)[N+](=O)[O-] [Compound 11k] |  |  |  |  |  | 2.39% |  |  | 2360 | 90.7 | 91.5 |  |  | 1220 |  |  |  |  |  |  | % Viability HG-3 ([16]; 10 µM): 0.11%; viability at 1 µM ([16]; CLL cell, read-out: % Viability HG-3, 1 µM, 24 h): 60.7%; % Viability PGA-1 [17]: 4.34%; viability at 1 µM [17]: 3.26%
